The text below walks through data of patent publication US20050256037A1, “Antibacterial amide macrocyles” (Bayer HealthCare AG, priority 2003, published 2005).

For experiment [1], the system named is S. aureus T17. Briefly: MIC, liquid dilution test in minimal medium (96-well microtitre plate). The class given is cell-based. The note with it: Staphylococcus aureus, T17, read-out: MIC S. aureus T17. How it is done:
(§1) Determination of the Minimum Inhibitory Concentration (MIC)
(§2) The minimum inhibitory concentration (MIC) is the minimum concentration of an antibiotic with which the growth of a test microbe is inhibited over 18-24 h. The inhibitor concentration can in these cases be determined by standard microbiological methods (see, for example, The National Committee for Clinical Laboratory Standards. Methods for dilution antimicrobial susceptibility tests for bacteria that grow aerobically; approved standard-fifth edition. NCCLS document M7-A5 [ISBN 1-56238-394-9]. NCCLS, 940 West Valley Road, Suite 1400, Wayne, Pa. 19087-1898 USA, 2000). The MIC of the compounds of the invention is determined in the liquid dilution test on the 96-well microtitre plate scale. The bacterial microbes are cultivated in a minimal medium (18.5 mM Na2HPO4, 5.7 mM KH2PO4, 9.3 mM NH4Cl, 2.8 mM MgSO4, 17.1 mM NaCl, 0.033 μg/ml thiamine hydrochloride, 1.2 μg/ml nicotinic acid, 0.003 μg/ml biotin, 1% glucose, 25 μg/ml of each proteinogenic amino acid with the exception of phenylalanine; [H.-P. Kroll; unpublished]) with addition of 0.4% BH broth (test medium). In the case of Enterococcus faecium L4001, heat-inactivated fetal calf serum (FCS; GibcoBRL, Germany) is added to the test medium in a final concentration of 10%. Overnight cultures of the test microbes are diluted to an OD578 of 0.001 (to 0.01 in the case of enterococci) in fresh test medium, and incubated 1:1 with dilutions of the test substances (1:2 dilution steps) in test medium (200 μl final volume). The cultures are incubated at 37° C. for 18-24 hours; enterococci in the presence of 5% CO2.
(§3) The lowest substance concentration in each case at which bacterial growth was no longer visible is defined as the MIC. […] The compounds show a graded antibacterial effect against most of the test microbes.
The S. aureus strain T17 is isolated in vivo. CFW1 mice are infected intraperitoneally with 4×10^7 S. aureus 133 cells per mouse. 0.5 h after the infection, the animals are treated intravenously with 50 mg/kg biphenomycin B. The kidneys are removed from the surviving animals on day 3 after the infection. After homogenization of the organs, the homogenates are plated out as described for RN4220Bi^R on antibiotic-free and antibiotic-containing agar plates and incubated at 37° C. overnight. […] About 20 of these colonies are tested for the biphenomycin B MIC, and a colony with an MIC of >50 μM is selected for further cultivation, and the strain is referred to a T17.

Experiment [2] concerns E. faecium L4001. The experiment is described as above. It is filed as cell-based. The note with it: Enterococcus faecium. How it is done: as §1, §2, §3
Experiment [3] concerns S. aureus E33. The experiment is described as above. The note with it: Staphylococcus aureus. The class given is cell-based. How it is done: as §1, §2, §3
Experiment [4] addresses S. aureus 133 Translation. Briefly: S. aureus in vitro transcription-translation assay (S30 extract, firefly luciferase reporter). The class given is biochemical. From the text:
In vitro Transcription-Translation with S. aureus Extracts
Construction of an S. aureus Luciferase Reporter Plasmid
A reporter plasmid which can be used in an in vitro transcription-translation assay from S. aureus is constructed by using the plasmid pBESTluc (Promega Corporation, USA). The E. coli tac promoter present in this plasmid in front of the firefly luciferase is replaced by the capA1 promoter with appropriate Shine-Dalgarno sequence from S. aureus. The primers CAPFor 5′-CGGCCAAGCTTACTCGGAT-[…] […]-3′ and CAPRev 5′-[…]-3′ are used for this. The primer CAPFor contains the capA1 promoter, the ribosome binding site and the 5′ region of the luciferase gene. After PCR using pBESTluc as template it is possible to isolate a PCR product which contains the firefly luciferase gene with the fused capA1 promoter. This is, after restriction with ClaI and HindIII, ligated into the vector pBESTluc which has likewise been digested with ClaI and HindIII. The resulting plasmid pla is able to replicate in E. coli and be used as template in the S. aureus in vitro transcription-traslation assay.
Preparation of S30 Extracts from S. aureus
Six litres of BHI medium are inoculated with a 250 ml overnight culture of an S. aureus strain and allowed to grow at 37° C. until the OD600 run is 2-4. The cells are harvested by centrifugation and washed in 500 ml of cold buffer A (10 mM Tris acetate, pH 8.0, 14 mM Magnesium acetate, 1 mM DTT, 1 M KCl). After renewed centrifugation, the cells are washed in 250 ml of cold buffer A with 50 mM KCl, and the resulting pellets are frozen at −20° C. for 60 min. The pellets are thawed on ice in 30 to 60 min and taken up to a total volume of 99 ml in buffer B (10 mM Tris acetate, pH 8.0, 20 mM Magnesium acetate, 1 mM DTT, 50.mM KCl). 1.5 ml portions of lysostaphin (0.8 mg/ml) in buffer B are introduced into 3 precooled centrifuge cups and each mixed with 33 ml of the cell suspension. The samples are incubated at 37° C., shaking occasionally, for 45 to 60 min, before 150 μl of a 0.5 M DTT solution are added. The lysed cells are centrifuged at 30 000×g and 4° C. for 30 min. The cell pellet is taken up in buffer B and then centrifuged again under the same conditions, and the collected supernatants are combined. The supernatants are centrifuged again under the same conditions, and 0.25 volume of buffer C (670 mM Tris acetate, pH 8.0, 20 mM Magnesium acetate, 7 mM Na3 phosphoenolpyruvate, 7 mM DTT, 5.5 mM ATP, 70 μM amino acids (complete from Promega), 75 μg of pyruvate kinase (Sigma, Germany)/ml are added to the upper ⅔ of the supernatant. The samples are incubated at 37° C. for 30 min. The supernatants are dialysed against 2 l of dialysis buffer (10 mM Tris acetate, pH 8.0, 14 mM Magnesium acetate, 1 mM DTT, 60 mM Potassium acetate) in a dialysis tube with a 3500 Da cut-off with one buffer change at 4° C. overnight. The dialysate is concentrated to a protein concentration of about 10 mg/ml by covering the dialysis tube with cold PEG 8000 powder (Sigma, Germany) at 4° C. The S30 extracts can be stored in aliquots at −70° C.
Determination of the IC50 in the S. aureus in vitro Transcription-Translation Assay Inhibition of protein biosynthesis of the compounds can be shown in an in vitro transcription-translation assay. The assay is based on the cell-free transcription and translation of firefly luciferase using the reporter plasmid pla as template and cell-free S30 extracts obtained from S. aureus. The activity of the resulting luciferase can be detected by luminescence measurement.
The amount of S30 extract or plasmid pla to be employed must be tested anew for each preparation in order to ensure an optimal concentration in the assay. 3 μl of the substance to be tested, dissolved in 5% DMSO, are introduced into an MTP. Then 10 μl of a suitably concentrated plasmid solution pla are added. […]

[5] abbreviates: L4001, read-out: MIC E. faecium L4001.
Where [6] appears, read: E33, read-out: MIC S. aureus E33.

Values after ≈ are worked out from the molar mass of the structure shown. Where a name gives a salt, the structure may show the parent alone. Read-outs that look alike come from different tables or passages of the source.

With `CN1C(=O)[C@H](C[C@@H](O)CN)NC(=O)[C@@H](N)Cc2cc(ccc2O)-c2ccc(O)c(c2)C[C@H]1C(=O)NCCN` [Example 1, (8S,11S,14S)-14-amino-N-(2-aminoethyl)-11-[(2R)-3-amino-2-hydroxypropyl]-5,17-dihydroxy-9-methyl-10,13-dioxo-9,12-diazatricyclo[14.3.1.1.^2,6]henicosa-1(20),2(21),3,5,16,18-hexaene-8-carboxamide, trihydrochloride], the minimal inhibitory concentration (MIC) came out at 3.1 µM in experiment [1], 12.5 µM in experiment [2] (setting [5]) and 3.1 µM in experiment [3] (setting [6]). Further, the IC50 in experiment [4] (Table A) and in experiment [4] (Table B) was 0.1 µM each time.

Consider `NC[C@H](O)C[C@@H]1NC(=O)[C@@H](N)Cc2cc(ccc2O)-c2ccc(O)c(c2)C[C@@H](C(=O)O)NC1=O` [Example 20A, 14(S)-Amino-1(S)-(3-amino-2(R)-hydroxypropyl)-5,17-dihydroxy-10,13-dioxo-9,12-diazatricyclo[14.3.1.1^2,6]henicosa-1(19),2,4,6(21),16(20),17-hexaene-8(S)-carboxylic acid dihydrochloride, reference compound], for which the MIC is more than 25 µM in experiment [1]; more than 25 µM in experiment [2] (L4001, Table A, liquid dilution, 10% FCS, 5% CO2, read-out: MIC E. faecium L4001); 0.1 µM in experiment [3] (E33, Table A, liquid dilution, 18-24 h, 37° C., read-out: MIC S. aureus E33). Also, the IC50 in experiment [4] (Table A) and in experiment [4] (Table B) was 1.5 µM each time.

As to `NCCC[C@@H]1NC(=O)[C@@H](N)Cc2cc(ccc2O)-c2ccc(O)c(c2)C[C@@H](C(=O)NCCN)NC1=O` [Example 6, (8S,11S,14S)-14-amino-N-(2-aminoethyl)-11-(3-aminopropyl)-5,17-dihydroxy-10,1 3-dioxo-9,12-diazatricyclo[14.3.1.1^2,6]henicosa-1(20),2(21),3,5,16,18-hexaene-8-carboxamide], the values for the MIC in experiment [1], in experiment [2] (setting [5]) and in experiment [3] (setting [6]) were 3.1 µM (≈ 1.55 µg/mL), more than 50 µM and 3.1 µM (≈ 1.55 µg/mL), respectively. Moreover, the half-inhibitory concentration (IC50) in experiment [4] (Table A) and in experiment [4] (Table B) was 0.5 µM in each case.
